Data: US7053194B2, “Compositions and methods for p53-mediated repression of gene expression” (Fox Chase Cancer Center, priority 1999, dated 2006)

Legend:
[1] = test system: H1299 human lung adenocarcinoma; test: Northern analysis of stathmin mRNA in p53-null cells; assay type: cell-based; details: H1299, null for p53
MCF-7 cells = test: Immunoprecipitation-western analysis of p53 and p53-mSin3a complexes; assay type: cell-based, human
Method: Sub-confluent cultures of MCF 7 and A2780 cells were treated with 100 nM trichostatin A (TSA, Sigma)for 2 hours, followed by incubation with 0.5 ug/ml adriamycin (doxorubicin, Sigma) for the indicated timepoints. Va15 cells grown at 39 degrees were treated with 100 nM TSA for two hours, followed by temperature shift to 32 degrees for 12 hours. p53 induction was monitored by western analysis of 100 ug protein as described (Murphy et al., Genes & Devel. 10:2971–2980, 1996), using 0.1ug/ml DO-1 (Ab-6, Calbiochem) or 421 (Ab-1, Calbiochem). MDM2 induction was monitored using the monoclonal antibody 2A10, kindly provided by Arnold Levine (Rockefeller University). For UV treatments, cells were irradiated with 4 J/m2 of UV-C with a Spectroline X series ultraviolet lamp, and output was monitored with a traceable UV light meter (Fisher Scientific). For ALLN treatment, MCF-7 cells were treated with 50 uM ALLN (calpain I inhibitor, Sigma) made in DMSO (dimethyl sulfoxide, Sigma) or with DMSO alone for 2 hours prior to harvesting.
Sub-confluent cultures of cells were harvested and lysed in NP-40 buffer supplemented with protease inhibitors (1 mM PMSF, 10 ug/ml pepstatin A, 10 ug/ml aprotinin, and 5ug/ml leupeptin). Protein concentrations were determined by the method of Bradford (BioRad). Equal ug amounts of protein (between 2.0 and 3.0 mg) were immunoprecipitated with 1 ug of each antibody, except for Va15 immunoprecipitations, which used 1000 ug protein, as described (Murphy et al., Genes & Devel. 10:2971–2980, 1996). For p300, antibody N15 (Santa Cruz Biotechnology) and AB-1 (Calbiochem) yielded similar results. Each IP was washed twice in NP-40 buffer (Wu, et al., Genes & Devel. 7:1126–1132, 1993), followed by 2 washes in RIPA buffer (50 mM Tris pH 7.4/150 mM NaCl/1% Triton X 100/0.1% SDSI 1% Na deoxycholate). Immunoprecipitations were run on 7.5–10% SDS-PAGE gels and transferred overnight onto Immuno-Blot PVDF membrane (BioRad). […]
These complexes persisted under stringent washing conditions (RIPA buffer washes, see Materials and Methods), and were not present using control antisera (rabbit IgG, lane 1). […] We next analyzed the p53-mSin3a interaction following post-translational stabilization of p53 mediated by DNA damaging agents. […]
We next analyzed the time-course of the p53-mSin3a interaction following exposure of cells to the DNA damaging agent adriamycin (doxorubicin). Both p53-mSin3a and p53 p300 complexes were monitored by IP-western analysis in a time course following adriamycin treatment of MCF-7 cells. As a control, p53 was immunoprecipitated using polyclonal antisera generated against full-length p53 (Santa Cruz Biotechnology). p53 levels were also assessed at each time point by western analyses (data not shown). […]

MCF7 cells = test: Cyclin-dependent kinase assays; assay type: cell-based, human; details: MCF7 treated with doxorubicin
Method: Cyclin-dependent kinase assays were performed essentially as described (Harper et al., 1993), using 250 ug of whole cell extract immunoprecipitated with 0.5 ug of polyclonal antisera to cdk2 (Santa Cruz Biotechnology), cyclin E and cyclin A. Following immunoprecipitation and washing, 1 ug of histone H1 (Sigma) was used as a substrate, in kinase reaction buffer (20 mM Tris pH 7.4/7.5 mM MgCl2/1 mM DTT), supplemented with 5 mM sodium fluoride, 1 mM sodium ortho-vanadate, and 125 ng/uL cAMP-dependent protein kinase inhibitor (Sigma). 0.5 uL of ^32P-ATP (NEN, 800 Ci/mmol) was added to each reaction, and 0.5 ug of normal rabbit IgG (Sigma) was used as a negative control. Following incubation at 37 degrees for 20 minutes, reactions were boiled in Laemmli sample buffer and loaded onto 10% SDS-PAGE. Cells for flow cytometry were fixed in ethanol and stained with propidium iodide as described (Murphy et al., Genes & Devel. 10:2971–2980, 1996) and analyzed on a Becton Dickinson FacScan. G1, S (synthesis) and G2/M populations were calculated using the program CellQuest.
This finding is consistent with flow cytometry data, which indicate that these cells are arrested in G2/M (not shown). As a negative control, normal rabbit IgG is used instead of polyclonal antisera for the immunoprecipitations and kinase assays (lanes 1 and 4).

Question: For `COc1cccc2c1C(=O)c1c(O)c3c(c(O)c1C2=O)C[C@@](O)(C(=O)CO)C[C@@H]3O[C@H]1C[C@H](N)[C@H](O)[C@H](C)O1` [adriamycin, doxorubicin], which “effect on stathmin levels” value [1] is on record?
Answer: neither TSA nor adriamycin had any effect on stathmin levels

Question: What about the “total p53 protein” value (MCF-7 cells; MCF-7, adriamycin, four and eight hours of treatment) of the same compound?
Answer: significant increase in total p53 protein

Question: And the “amount of p53 in mSin3a complexes, increase” value (MCF-7 cells; MCF-7 treated with doxorubicin)?
Answer: approximately five-fold greater

Question: And the “cdk2, cyclin A and cyclin E kinase activities” value (MCF7 cells)?
Answer: all activities are low

Question: What about the cell cycle arrest (MCF7 cells) of the same compound?
Answer: arrest in G2/M phase
